Measurements from ChEMBL document CHEMBL1155740, “Dicerandrols, new antibiotic and cytotoxic dimers produced by the fungus Phomopsis longicolla isolated from an endangered mint” (2001).
Activity calls are given as the source filed them. No cut-off for these calls is given here.

Tests used:
[1] = system: A549; assay: Cytotoxicity against human A549 cells after 72 hrs; type: functional
[2] = system: Staphylococcus aureus; assay: Antibacterial activity against Staphylococcus aureus at 100 ug/disk after overnight incubation by agar diffusion method; type: functional; details: read-out: IZ
[3] = system: Saccharomyces cerevisiae; assay: Antifungal activity against Saccharomyces cerevisiae at 300 ug/disk; type: functional, organism-based
[4] = system: HCT-116; assay: Cytotoxicity against human HCT116 cells after 72 hrs; type: functional
[5] = system: Bacillus subtilis; assay: Antibacterial activity against Bacillus subtilis at 100 ug/disk after overnight incubation by agar diffusion method; type: functional; details: read-out: IZ
[6] = system: Geotrichum candidum; assay: Antifungal activity against Geotrichum candidum at 300 ug/disk; type: functional, organism-based
[7] = system: Staphylococcus aureus; assay: Antibacterial activity against Staphylococcus aureus at 30 ug after overnight incubation by agar diffusion method; type: functional; details: read-out: IZ
[8] = system: Bacillus subtilis; assay: Antibacterial activity against Bacillus subtilis at 30 ug after overnight incubation by agar diffusion method; type: functional, organism-based

With `CC(=O)O[C@@H]1[C@H](C)CC(O)=C2C(=O)c3c(ccc(-c4ccc5c(c4O)C(=O)C4=C(O)C[C@@H](C)[C@@H](OC(C)=O)[C@@]4(CO)O5)c3O)O[C@@]21CO` [DICERANDROL A] the IC100 [1] was 7 µg/mL, the zone of inhibition at 100 µg/disc [2] was 10.8 mm and the Activity [3] was “inactive”. The IC100 [4] was 7 µg/mL, the zone of inhibition at 100 µg/disc [5] was 11 mm and the Activity [6] was “inactive”.
For `CC(=O)OC[C@]12Oc3ccc(-c4ccc5c(c4O)C(=O)C4=C(O)C[C@@H](C)[C@@H](OC(C)=O)[C@@]4(CO)O5)c(O)c3C(=O)C1=C(O)C[C@@H](C)[C@H]2OC(C)=O` [DICERANDROL B], the IC100 [1] was 1.8 µg/mL, the zone of inhibition at 100 µg/disc [2] was 8.5 mm and the Activity [3] was “inactive”. For the same compound, the IC100 [4] was 1.8 µg/mL, the zone of inhibition at 100 µg/disc [5] was 9.5 mm and the Activity [6] was “inactive”.
`CC(=O)OC[C@]12Oc3ccc(-c4ccc5c(c4O)C(=O)C4=C(O)C[C@@H](C)[C@@H](OC(C)=O)[C@@]4(COC(C)=O)O5)c(O)c3C(=O)C1=C(O)C[C@@H](C)[C@H]2OC(C)=O` [DICERANDROL C] was tested, and the IC100 [1] was 1.8 µg/mL, the zone of inhibition at 100 µg/disc [2] was 7 mm and the Activity [3] was “inactive”. For the same compound, the IC100 [4] was 7 µg/mL, the zone of inhibition at 100 µg/disc [5] was 8 mm and the Activity [6] was “inactive”.
`COc1cc([C@@H]2c3cc4c(cc3[C@@H](O[C@@H]3O[C@@H]5CO[C@@H](C)O[C@H]5[C@H](O)[C@H]3O)[C@H]3COC(=O)[C@H]23)OCO4)cc(OC)c1O` [ETOPOSIDE] showed an IC100 [1] of 30 µg/mL and an IC100 [4] of 125 µg/mL.
Compound `NC[C@@H]1O[C@H](O[C@H]2[C@@H](O)[C@H](O[C@@H]3[C@@H](O)[C@H](N)C[C@H](N)[C@H]3O[C@H]3O[C@H](CN)[C@@H](O)[C@H](O)[C@H]3N)O[C@@H]2CO)[C@H](N)[C@@H](O)[C@@H]1O` [FRAMYCETIN] has a zone of inhibition at 30 µg/disc [7] of 9 mm.
In the case of NYSTATIN, the inhibition zone (IZ) [8] is reported as 12 mm.
